# Data reported in article PMC5622107, “Small molecule inhibition of cGAS reduces interferon expression in primary macrophages from autoimmune mice” (Nature Communications, 2017).
# Biological target: T1, m-cGAS (Mus musculus, UniProt Q8C6L5)
# T1 construct: recombinant full-length mouse cGAS in reaction buffer; His6-SUMO (N, cleaved yes); made in house; host or cells: E. coli BL21(DE3) RIL
# Assay: Kinetics of m-cGAS in the presence of RU.365 (RF-MS)
# Assay type: biochemical
# Protocol: Kinetics parameters of cGAMP formation were determined in the reaction mixtures carried out in 20 μl volumes in 384 small volume deep well polypropylene plates. The final concentration of m-cGAS enzyme and dsDNA were 60 nM and 300 nM, respectively. To determine if RU.365 was competitive against ATP and/or GTP, different concentrations of RU.365 ranging from 0.8 µM to 6.3 µM were tested, keeping one substrate fixed at 300 µM while varying the other one. Apparent K m ^app and apparent V max ^app values were also calculated in the presence and absence of the small molecule. RU.365 was diluted by half in DMSO for a total of four dilutions where the highest final concentration in the assay was 6.3 μM. Ten microliters of reaction buffer composed of 20 mM Tris-HCl pH 7.4, 150 mM NaCl, 5 mM MgCl2, and 0.01% Tween-20 were dispensed per well using a Thermo Multidrop Combi dispenser (Thermo Scientific). The liquid was collected at the well bottom by centrifugation for 30 s at 180×g. In all, 0.1 μl of RU.365 serially diluted in DMSO were dispensed with a Janus 384 MDT NanoHead (PerkinElmer).
# Each reaction containing a variable substrate concentration was performed in a different plate. A separate column containing different amounts of cGAMP was also included in each plate in order to construct the calibration curve and calculate the µmoles of product formed. Twenty different master mix solutions were prepared in reaction buffer supplemented with 2 mM DTT and 1.2 µM dsDNA. Of these, Ten master mix solutions were prepared with different concentrations of GTP ranging from 2.36 µM to 1.2 mM while keeping the concentration of ATP fixed at 1.2 mM and vice versa for the other 10 master mix solutions. Five microliters of these solutions with variable substrate concentration were added for each reaction. Finally, the reaction was started by adding 5 μl of 0.24 μM recombinant full-length mouse cGAS in reaction buffer supplemented with 2 mM DTT to each well of the plate followed by centrifugation for 30 s at 180×g and incubation for 120 min at room temperature. The reaction was stopped by addition of 60 μl of 0.5% (v/v) formic acid per well. The plates were centrifuged for 30 s at 180×g and sealed with a Velocity11 PlateLoc thermal plate sealer. To calculate IC50 log (inhibitor) vs. response, a variable slope non-linear fit from GraphPad Prism (7.01) was used, using three replicate experiments; error bars represent SD. The kinetics parameters were obtained fitting the curves to an allosteric sigmoidal nonlinear fit using the same software.
# [1] = varying ATP, GTP fixed, RU.365 0.8 µM
# [2] = varying ATP, GTP fixed, RU.365 1.6 µM
# [3] = varying ATP, GTP fixed, RU.365 3.2 µM
# [4] = varying ATP, GTP fixed, RU.365 6.3 µM
# [5] = varying GTP, ATP fixed, RU.365 0.8 µM
# [6] = varying GTP, ATP fixed, RU.365 1.6 µM
# [7] = varying GTP, ATP fixed, RU.365 3.2 µM
# [8] = varying GTP, ATP fixed, RU.365 6.3 µM
# T1 sequence (Q8C6L5 whole entry): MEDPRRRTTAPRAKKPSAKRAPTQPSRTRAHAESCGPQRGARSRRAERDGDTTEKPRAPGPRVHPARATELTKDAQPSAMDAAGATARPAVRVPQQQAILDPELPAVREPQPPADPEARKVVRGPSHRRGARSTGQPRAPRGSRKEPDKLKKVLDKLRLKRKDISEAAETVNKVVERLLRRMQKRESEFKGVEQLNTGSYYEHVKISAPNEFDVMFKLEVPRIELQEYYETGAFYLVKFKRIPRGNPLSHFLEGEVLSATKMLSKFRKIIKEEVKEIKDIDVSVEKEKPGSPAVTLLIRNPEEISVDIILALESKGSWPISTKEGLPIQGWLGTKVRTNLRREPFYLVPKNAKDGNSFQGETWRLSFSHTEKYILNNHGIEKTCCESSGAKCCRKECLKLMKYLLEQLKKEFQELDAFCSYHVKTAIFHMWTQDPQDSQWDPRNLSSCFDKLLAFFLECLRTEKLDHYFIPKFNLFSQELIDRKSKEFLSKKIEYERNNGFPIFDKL
smiles,measurement,setting,value
Cc1nn(-c2nc3ccccc3[nH]2)c(O)c1C1OC(=O)c2ccccc21 (centres unmarked) [RU166365],mechanism of inhibition against ATP or GTP,,non-competitive inhibitor
same,Kmapp,[1],109.1 µM
same,kcat,[1],0.283 s⁻¹
same,Kmapp,[2],115.5 µM
same,kcat,[2],0.233 s⁻¹
same,Kmapp,[3],113.4 µM
same,kcat,[3],0.152 s⁻¹
same,Kmapp,[4],107.3 µM
same,kcat,[4],0.0717 s⁻¹
same,Kmapp,[5],77.8 µM
same,kcat,[5],0.283 s⁻¹
same,Kmapp,[6],89.7 µM
same,kcat,[6],0.233 s⁻¹
same,Kmapp,[7],79.7 µM
same,kcat,[7],0.152 s⁻¹
same,Kmapp,[8],89.4 µM
same,kcat,[8],0.0717 s⁻¹
